32 compounds from patent publication US10590118B2, “Bicyclic heterocyclic derivatives as bromodomain inhibitors” (Orion Corporation, priority 2014, dated 2020) can be followed below.

Where only a bound is given, the exact number is not on record here.

The target of this test is T1, Bet bromodomain protein (BRD4) (Homo sapiens, UniProt O60885).
T1 construct: made in house
Put plainly: Bet bromodomain TR-FRET assay. In kind it is binding. Particulars: 300 nM acetyl histone peptide substrate, results given as Group A/B/C. How it is done:
In-Vitro Biochemical Data of bicyclic heterocyclic derivatives in time-resolved fluorescence resonance energy transfer (TR-FRET) assay.
The Bet brommodomain TR-FRET assay has been used to identify compounds that bind to bet bromodomain and prevent its interaction with acetylated histone peptides.
In the assay, optimized concentration of in-house Bet bromodomain protein (BRD4) and 300 nM of acetyl histone peptide substrate were diluted in assay buffer (50 mM HEPES, pH: 7.5, 50 mM NaCl, 500 μM CHAPS) and were added to the positive control and test control wells in a 384 well plate. Substrate control wells have 300 nM of acetyl histone peptide substrate diluted in assay buffer. Buffer blank wells were added with assay buffer. The reaction mixture was allowed for incubation at room temperature for 30 mins. Stock solutions of test compounds at 20 mM DMSO are prepared. Compounds are serially diluted and added to the test wells in 384-well polypropylene plates. The reaction mixture was further incubated for 30 mins at room temperature on a plate shaker. 2 nM of Europium labeled streptavidn and 10 nM of XL-665 labeled antibody diluted in detection buffer (50 mM HEPES, pH: 7.5, 50 mM NaCl, 500 μM CHAPS and 800 mM KF) were added to all the wells excluding the buffer blank wells. The reaction plate was incubated for additional 30 mins at room temperature on plate shaker. The plate was read in Perkin Elmer WALLAC 1420 Multilabel Counter Victor 3 (Ex: 340 nm Em: 615 and 665 nm). The amount of displacement of the peptide was measured as ratio of specific 665 nm energy transfer signal to 615 nm signals. The compounds IC50 was determined by fitting the dose response data to sigmoid curve fitting equation using Graph Pad Prism software V5.
In general terms: Time-resolved FRET reads energy transfer from a long-lived donor to a nearby acceptor.
As to `Cc1noc(C)c1-c1cc2ccc(=O)n(Cc3ccccn3)c2cc1OC(F)(F)F` [Compound 85, 6-(3,5-dimethylisoxazol-4-yl)-1-(pyridin-2-ylmethyl)-7-(trifluoromethoxy)quinolin-2(1H)-one], the IC50 (commonly the concentration at which inhibition is half-maximal) lay within 1000 to 3000 nM.

For `C=CCOc1cc2c(ccc(=O)n2Cc2ccccn2)cc1-c1c(C)noc1C` [Compound 79, 7-(allyloxy)-6-(3,5-dimethylisoxazol-4-yl)-1-(pyridin-2-ylmethyl)quinolin-2(1H)-one], the IC50 is at most 1000 nM.

Turning to `COc1cc2c(cc1-c1c(C)noc1C)cc(C)c(=O)n2Cc1ccccn1` [Compound 50, 6-(3,5-dimethylisoxazol-4-yl)-7-methoxy-3-methyl-1-(pyridin-2-ylmethyl)quinolin-2(1H)-one], the IC50 is at most 1000 nM.

`COc1cc2c(cc1-c1c(C)noc1C)c(C1CC1)cc(=O)n2Cc1ccccn1` [Compound 55, 4-cyclopropyl-6-(3,5-dimethytisoxazol-4-yl)-7-methoxy-1-(pyridin-2-ylmethyl)quinolin-2(1H)-one] registered an IC50 of at most 1000 nM.

Regarding `COc1cc2c(ccc(=O)n2Cc2ccc3ccccc3n2)cc1-c1c(C)noc1C` [Compound 57, 6-(3,5-dimethylisoxazol-4-yl)-7-methoxy-1-(quinolin-2-ylmethyl)quinolin-2(1H)-one], the IC50 lay in the range of 1000 to 3000 nM.

For `COc1cc2c(cc1-c1c(C)noc1C)OCCN2C(C)c1ccc(Cl)cc1` (centres unmarked) [Compound 6, 4-(1-(4-chlorophenyl)ethyl)-7-(3,5-dimethylisoxazol-4-yl)-6-methoxy-3,4-dihydro-2H-benzo[b][1,4]oxazine], the IC50 was above 3000 nM.

In the case of `COc1cc2c(ccc(=O)n2Cc2ncccn2)cc1-c1c(C)noc1C` [Compound 43, 6-(3,5-dimethylisoxazol-4-yl)-7-methoxy-1-(pyrimidin-2-ylmethyl)quinolin-2(1H)-one], the IC50 is at most 1000 nM.

With `COc1cc2c(cc1-c1c(C)noc1C)cc(C1CCCCC1)c(=O)n2Cc1cccnc1` [Compound 69, 3-cyclohexyl-6-(3,5-dimethylisoxazol-4-yl)-7-methoxy-1-(pyridin-3-ylmethyl)quinolin-2(1H)-one], the IC50 is at most 1000 nM.

`Cc1noc(C)c1-c1cc2ccc(=O)n(Cc3ccccn3)c2cc1OCC1CCNCC1` [Compound 77, 6-(3,5-dimethylisoxazol-4-yl)-7-(piperidin-4-ylmethoxy)-1-(pyridin-2-ylmethyl)quinolin-2(1H)-one]: the IC50 is at most 1000 nM.

As to `Cc1noc(C)c1-c1cc2ccc(=O)n(Cc3ccccn3)c2cc1OCCO` [Compound 80, 6-(3,5-dimethylisoxazol-4-yl)-7-(2-hydroxyethoxy)-1-(pyridin-2-ylmethyl)quinolin-2(1H)-one], the IC50 was at most 1000 nM.

With `COc1cc2c(cc1-c1c(C)noc1C)OCC(=O)N2CC1CCOCC1` [Compound 23, 7-(3,5-dimethytisoxazol-4-yl)-6-methoxy-4-((tetrahydro-2H-pyran-4-yl)methyl)-2H-benzo[b][1,4]oxazin-3(4H)-one], the IC50 was at most 1000 nM.

Consider `COc1cc2c(cc1NS(=O)(=O)c1c(C)noc1C)OCC(=O)N2Cc1ccc(Cl)cc1` [Compound 13, N-(4-(4-chlorobenzyl)-6-methoxy-3-oxo-3,4-dihydro-2H-benzo[b][1,4]oxazin-7-yl)-3,5-dimethylisoxazole-4-sulfonamide], for which the IC50 is above 3000 nM.

Compound `Cc1noc(C)c1-c1cc2ccc(=O)n(Cc3ccccn3)c2cc1OCC(F)(F)F` [Compound 74, 6-(3,5-dimethylisoxazol-4-yl)-1-(pyridin-2-ylmethyl)-7-(2,2,2-trifluoroethoxy)quinolin-2(1H)-one] displayed an IC50 of at most 1000 nM.

On to `Cc1noc(C)c1-c1cc2ccc(=O)n(Cc3ccccn3)c2cc1OCc1ccncc1` [Compound 83, 6-(3,5-dimethylisoxazol-4-yl)-1-(pyridin-2-ylmethyl)-7-(pyridin-4-ylmethoxy)quinolin-2(1H)-one], for which the IC50 is at most 1000 nM.

`COc1cc2c(cc1-c1c(C)noc1C)OCCN2S(=O)(=O)c1cccc(Cl)c1` [Compound 11, 4-((3-chlorophenyl)sulfonyl)-7-(3,5-dimethylisoxazol-4-yl)-6-methoxy-3,4-dihydro-2H-benzo[b][1,4]oxazine] gave an IC50 of 1000 to 3000 nM.

As to `Cc1noc(C)c1-c1cc2ccc(=O)n(Cc3ccccn3)c2cc1OC1CCNCC1` [Compound 86, 6-(3,5-dimethylisoxazol-4-yl)-7-(piperidin-4-yloxy)-1-(pyridin-2-ylmethyl)quinolin-2(1H)-one], the IC50 is above 3000 nM.

`COc1cc2c(cc1-c1c(C)noc1C)CCC(=O)N2Cc1ccc(Cl)cc1` [Compound 5, 1-(4-chlorobenzyl)-6-(3,5-dimethyisoxazol-4-yl)-7-methoxy-3,4-dihydroquinolin-2(1H)-one]: the IC50 was at most 1000 nM.

Consider `COc1cc2c(cc1-c1c(C)noc1C)OCC(=O)N2Cc1ccc(Cl)cn1` [Compound 28, 4-((5-chloropyridin-2-yl)methyl)-7-(3,5-dimethylisoxazol-4-yl)-6-methoxy-2H-benzo[b][1,4]oxazin-3(4H)-one], for which the IC50 is at most 1000 nM.

Regarding `COc1cc2c(ccc(=O)n2Cc2cccnc2)cc1-c1c(C)noc1C` [Compound 36, 6-(3,5-dimethylisoxazol-4-yl)-7-methoxy-1-(pyridin-3-ylmethyl)quinolin-2(1H)-one], the IC50 was at most 1000 nM.

In the case of `CCC(=O)N1CCC(CN2C(=O)COc3cc(-c4c(C)noc4C)c(OC)cc32)CC1` [Compound 90, 7-(3,5-dimethylisoxazol-4-yl)-6-methoxy-4-((1-propionylpiperidin-4-yl)methyl)-2H-benzo[b][1,4]oxazin-3(4H)-one], the IC50 was at most 1000 nM.

Consider `COc1cc2c(ccc(=O)n2Cc2ccccn2)cc1-c1c(C)noc1C` [Compound 46, 6-(3,5-dimethylisoxazol-4-yl)-7-methoxy-1-(pyridin-2-ylmethyl)quinolin-2(1H)-one], for which the IC50 was at most 1000 nM.

`COc1cc2c(cc1-c1c(C)noc1C)OCC(=O)N2Cc1ccc(Cl)cc1` [Compound 18, 4-(4-chlorobenzyl)-7-(3,5-dimethylisoxazol-4-yl)-6-methoxy-2H-benzo[b][1,4]oxazin-3(4H)-one] had an IC50 of at most 1000 nM.

`COc1cc2c(ccc(=O)n2Cc2ccc(-c3cnn(C)c3)cn2)cc1-c1c(C)noc1C` [Compound 98, 6-(3,5-dimethylisoxazol-4-yl)-7-methoxy-1-((5-(1-methyl-1H-pyrazol-4-yl)pyridin-2-yl)methyl)quinolin-2(1H)-one] returned an IC50 of at most 1000 nM.

`COc1cc2c(ccc(=O)n2Cc2ccc(Cl)cc2)cc1-c1c(C)noc1C` [Compound 56, 1-(4-chlorobenzyl)-6-(3,5-dimethylisoxazol-4-yl)-7-methoxyquinolin-2(1H)-one] displayed an IC50 of at most 1000 nM.

In turn, `COc1cc2c(cc1-c1c(C)noc1C)OCC(=O)N2C(C)c1ccncc1` (single isomer, unassigned) [Compound 19, 7-(3,5-dimethylisoxazol-4-yl)-6-methoxy-4-(1-(pyridin-4-yl)ethyl)-2H-benzo[b][1,4]oxazin-3(4H)-one] came in with an IC50 above 3000 nM.

On to `COc1cc2c(ccc(=O)n2Cc2ccccn2)cc1C1=C(C)C(=O)NC1=O` [Compound 92, 3-(7-methoxy-2-oxo-1-(pyridin-2-ylmethyl)-1,2-dihydroquinolin-6-yl)-4-methyl-1H-pyrrole-2,5-dione], for which the IC50 is above 3000 nM.

The compound `Cc1noc(C)c1-c1cc2ccc(=O)n(Cc3ccccn3)c2cc1OCC1CCOCC1` [Compound 87, 6-(3,5-dimethylisoxazol-4-yl)-1-(pyridin-2-ylmethyl)-7-((tetrahydro-2H-pyran-4-yl)methoxy)quinolin-2(1H)-one] yielded an IC50 of 1000 to 3000 nM.

`COc1cc2c(ccc(=O)n2Cc2ccc(C(F)(F)F)cn2)cc1-c1c(C)noc1C` [Compound 47, 6-(3,5-dimethylisoxazol-4-yl)-7-methoxy-1-((5-(trifluoromethyl)pyridin-2-yl)methyl)quinolin-2(1H)-one]: the IC50 is at most 1000 nM.

For `COc1cc2c(cc1-c1c(C)noc1C)OCC(=O)N2Cc1ccccn1` [Compound 22, 7-(3,5-dimethytisoxazol-4-yl)-6-methoxy-4-(pyridin-2-ylmethyl)-2H-benzo[b][1,4]oxazin-3(4H)-one], the IC50 is at most 1000 nM.

`COc1cc2c(cc1-c1c(C)noc1C)OCC(=O)N2CC1CCNCC1` [Compound 60, 7-(3,5-dimethylisoxazol-4-yl)-6-methoxy-4-(piperidin-4-ylmethyl)-2H-benzo[b][1,4]oxazin-3(4H)-one] came in with an IC50 above 3000 nM.

Compound `COc1cc2c(cc1-c1c(C)noc1C)cc(C)c(=O)n2CCc1ccc(Cl)cc1` [Compound 59, 1-(4-chlorophenethyl)-6-(3,5-dimethylisoxazol-4-yl)-7-methoxy-3-methylquinolin-2(1H)-one] displayed an IC50 of at most 1000 nM.

Compound `COc1cc2c(cc1-c1c(C)noc1C)c(C#N)c(C)c(=O)n2CCc1ccc(Cl)cc1` [Compound 105, 1-(4-chlorophenethyl)-6-(3,5-dimethylisoxazol-4-yl)-7-methoxy-3-methyl-2-oxo-1,2-dihydroquinoline-4-carbonitrile] returned an IC50 above 3000 nM.
